Compound: O=C1CCc2cc(OCCCCc3nnnn3C3CCCCC3)ccc2N1
- solubility (mole fraction) (in 1,4-dioxane, 288.15 K): 0.00525
- solubility (mole fraction) (in 1,4-dioxane, 293.15 K): 0.0061
- solubility (mole fraction) (in 1,4-dioxane, 298.15 K): 0.00708
- solubility (mole fraction) (in 1,4-dioxane, 303.15 K): 0.00819
- solubility (mole fraction) (in 1,4-dioxane, 308.15 K): 0.0095
- solubility (mole fraction) (in 1,4-dioxane, 313.15 K): 0.0112
- solubility (mole fraction) (in 2-butanone, 273.15 K): 0.00289
- solubility (mole fraction) (in 2-butanone, 278.15 K): 0.00345
- solubility (mole fraction) (in 2-butanone, 283.15 K): 0.00399
- solubility (mole fraction) (in 2-butanone, 288.15 K): 0.00464
- solubility (mole fraction) (in 2-butanone, 293.15 K): 0.00529
- solubility (mole fraction) (in 2-butanone, 298.15 K): 0.006
- solubility (mole fraction) (in 2-butanone, 303.15 K): 0.00677
- solubility (mole fraction) (in 2-butanone, 308.15 K): 0.00774
- solubility (mole fraction) (in 2-butanone, 313.15 K): 0.00881
- solubility (mole fraction) (in acetone, 273.15 K): 0.00168
- solubility (mole fraction) (in acetone, 278.15 K): 0.00206
- solubility (mole fraction) (in acetone, 283.15 K): 0.00244
- solubility (mole fraction) (in acetone, 288.15 K): 0.00287
- solubility (mole fraction) (in acetone, 293.15 K): 0.00332
- solubility (mole fraction) (in acetone, 298.15 K): 0.00381
- solubility (mole fraction) (in acetone, 303.15 K): 0.00433
- solubility (mole fraction) (in acetone, 308.15 K): 0.00487
- solubility (mole fraction) (in acetone, 313.15 K): 0.00557
- solubility (mole fraction) (in acetonitrile, 273.15 K): 0.0003
- solubility (mole fraction) (in acetonitrile, 278.15 K): 0.000506
- solubility (mole fraction) (in acetonitrile, 283.15 K): 0.000705
- solubility (mole fraction) (in acetonitrile, 288.15 K): 0.000935
- solubility (mole fraction) (in acetonitrile, 293.15 K): 0.00119
- solubility (mole fraction) (in acetonitrile, 298.15 K): 0.00151
- solubility (mole fraction) (in acetonitrile, 303.15 K): 0.00187
- solubility (mole fraction) (in acetonitrile, 308.15 K): 0.00226
- solubility (mole fraction) (in acetonitrile, 313.15 K): 0.00273
- solubility (mole fraction) (in ethanol, 273.15 K): 0.000168
- solubility (mole fraction) (in ethanol, 278.15 K): 0.000282
- solubility (mole fraction) (in ethanol, 283.15 K): 0.000406
- solubility (mole fraction) (in ethanol, 288.15 K): 0.00054
- solubility (mole fraction) (in ethanol, 293.15 K): 0.00069
- solubility (mole fraction) (in ethanol, 298.15 K): 0.000847
- solubility (mole fraction) (in ethanol, 303.15 K): 0.00102
- solubility (mole fraction) (in ethanol, 308.15 K): 0.00122
- solubility (mole fraction) (in ethanol, 313.15 K): 0.00144
- solubility (mole fraction) (in ethyl acetate, 273.15 K): 0.000115
- solubility (mole fraction) (in ethyl acetate, 278.15 K): 0.000205
- solubility (mole fraction) (in ethyl acetate, 283.15 K): 0.00031
- solubility (mole fraction) (in ethyl acetate, 288.15 K): 0.000428
- solubility (mole fraction) (in ethyl acetate, 293.15 K): 0.000556
- solubility (mole fraction) (in ethyl acetate, 298.15 K): 0.000704
- solubility (mole fraction) (in ethyl acetate, 303.15 K): 0.000861
- solubility (mole fraction) (in ethyl acetate, 308.15 K): 0.00102
- solubility (mole fraction) (in ethyl acetate, 313.15 K): 0.00119
- solubility (mole fraction) (in isopropanol, 273.15 K): 8.4e-05
- solubility (mole fraction) (in isopropanol, 278.15 K): 0.000155
- solubility (mole fraction) (in isopropanol, 283.15 K): 0.000233
- solubility (mole fraction) (in isopropanol, 288.15 K): 0.000324
- solubility (mole fraction) (in isopropanol, 293.15 K): 0.000421
- solubility (mole fraction) (in isopropanol, 298.15 K): 0.000543
- solubility (mole fraction) (in isopropanol, 303.15 K): 0.000683
- solubility (mole fraction) (in isopropanol, 308.15 K): 0.000833
- solubility (mole fraction) (in isopropanol, 313.15 K): 0.000981
- solubility (mole fraction) (in methanol, 273.15 K): 0.000258
- solubility (mole fraction) (in methanol, 278.15 K): 0.00041
- solubility (mole fraction) (in methanol, 283.15 K): 0.000573
- solubility (mole fraction) (in methanol, 288.15 K): 0.000754
- solubility (mole fraction) (in methanol, 293.15 K): 0.000955
- solubility (mole fraction) (in methanol, 298.15 K): 0.00117
- solubility (mole fraction) (in methanol, 303.15 K): 0.00141
- solubility (mole fraction) (in methanol, 308.15 K): 0.00166
- solubility (mole fraction) (in methanol, 313.15 K): 0.00193
- solubility (mole fraction) (in n-butanol, 273.15 K): 0.000437
- solubility (mole fraction) (in n-butanol, 278.15 K): 0.000656
- solubility (mole fraction) (in n-butanol, 283.15 K): 0.000907
- solubility (mole fraction) (in n-butanol, 288.15 K): 0.00119
- solubility (mole fraction) (in n-butanol, 293.15 K): 0.0015
- solubility (mole fraction) (in n-butanol, 298.15 K): 0.00184
- solubility (mole fraction) (in n-butanol, 303.15 K): 0.00222
- solubility (mole fraction) (in n-butanol, 308.15 K): 0.00263
- solubility (mole fraction) (in n-butanol, 313.15 K): 0.00307
- solubility (mole fraction) (in n-propanol, 273.15 K): 0.000206
- solubility (mole fraction) (in n-propanol, 278.15 K): 0.000334
- solubility (mole fraction) (in n-propanol, 283.15 K): 0.000487
- solubility (mole fraction) (in n-propanol, 288.15 K): 0.000634
- solubility (mole fraction) (in n-propanol, 293.15 K): 0.000813
- solubility (mole fraction) (in n-propanol, 298.15 K): 0.00098
- solubility (mole fraction) (in n-propanol, 303.15 K): 0.00116
- solubility (mole fraction) (in n-propanol, 308.15 K): 0.00136
- solubility (mole fraction) (in n-propanol, 313.15 K): 0.0016
